A short description of the data set: gradient 5% acetonitrile 3 min, to 50% in 2 min, to 85% in 15 min, held 3 min, 100 µL/min. The following applies: column: Zorbax Extend-C18 2.1 x 50 mm; eluents: water / acetonitrile, 0.1% formic acid. A digest of the protocol: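 The mobile phases were water and acetonitrile, each with 0.1% formic acid, pumped at 100 μL/min through a Zorbax Extend-C18 column (2.1 × 50 mm, 1.8 μm). Pure standards were injected as mixtures of ~100 molecules and detected by a quadrupole time-of-flight mass spectrometer in positive and negative ionization mode. Retention time came from computationally picked adduct peaks, each inspected by hand.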
For the molecule `CCCNC(=O)Cn1c(C2CCCO2)nc2ccccc21` (stereo not given), the RP-LC retention time amounted to 593 s. `COC(=O)c1cc2c(=O)n(-c3ccc(NC(C)=O)cc3)ccc2nc1C` yielded an RP-LC retention time of 675 s.

With `Cc1nc2cccnc2n1CC1CCCN(S(=O)(=O)c2ccc3c(c2)CCCC3)C1` (stereo not given), the RP-LC retention time turned out to be 831 s. In the case of `Cc1cc(N2CCN(S(=O)(=O)c3cccc(C(F)(F)F)c3)CC2)nc(NC2CCCCC2)n1`, the RP-LC retention time is 890 s.

`O=C(NC1CC(=O)N(c2ccc3c(c2)OCCO3)C1)c1ccc(-c2ccccc2)cc1` (stereo not given) displayed an RP-LC retention time of 866 s. Turning to `COc1ccc(Cl)cc1NC(=O)N(C)CCc1noc(COc2ccccc2)n1`, the RP-LC retention time came to 1010 s. With `CS(=O)(=O)N1CCC(C(=O)Nc2nnc(-c3ccc4c(c3)OCCO4)o2)CC1`, the RP-LC retention time is 646 s. On to `CCN1c2ccccc2C(=O)NC12CCN(C(=O)Nc1ccc(C)c(C)c1)CC2`, for which the RP-LC retention time was found to be 860 s. Molecule `Cc1cc(C(=O)N2CCCCC2c2nncn2-c2ccccc2)nn1C` (stereo not given) had an RP-LC retention time of 647 s.

In the case of `Cc1cccc(NC(=O)C2CCN(S(=O)(=O)c3cc(C(=O)N4CCOCC4)cs3)CC2)n1`, the RP-LC retention time was found to be 648 s.

The molecule `COc1cc(C(=O)N(Cc2cccs2)C2CCS(=O)(=O)C2)cc(OC)c1OC` (stereo not given) gave an RP-LC retention time of 702 s. On to `N#CCCc1ccc2c(c1)-c1[nH]c3ccc([N+](=O)[O-])cc3c1CC(=O)N2`, for which the RP-LC retention time came to 778 s. Regarding `Cc1cc(F)ccc1NC(=O)c1cc(C2CC2)on1`, the RP-LC retention time came to 936 s.

For the molecule `Cc1ccc(NC(=O)Cn2cnc3nc4c(cc3c2=O)CCCC4)c(C)c1`, the RP-LC retention time was 734 s. Take `CCN(CC)CCNC(=O)CCc1c(C)nc2c(c1C)c(=O)n(C)c(=O)n2C`: the RP-LC retention time turned out to be 602 s. Molecule `Cc1nc(-c2noc(-c3ccccc3)n2)cn1CC(=O)N1CCN(c2ccc(F)cc2)CC1` registered an RP-LC retention time of 868 s. As for `COc1cccc(NC(=O)N(C)CC2CCOCC2)c1`, the RP-LC retention time worked out at 685 s. The molecule `CCc1cccc(NC(=O)C2CCN(C(=O)C3Sc4ccccc4NC3=O)CC2)c1` (stereo not given) showed an RP-LC retention time of 762 s. The figure for `O=C(O)c1ccc(CCCc2ccc(OCCc3ccc(F)cc3)cc2)o1` is 1090 s. As for `Cc1ccc(-c2noc(CCN3CCN(C(C)C)CC3)n2)cc1`, the figure is 640 s; as for `CN(C)c1ccc(CNS(=O)(=O)c2cc(-c3nc(C(C)(C)C)cs3)cs2)cc1`, 1100 s; as for `CCC1=C(c2ccc(C)cc2)S(=O)(=O)N=C1N1CCC(C(=O)N(C)Cc2ccco2)CC1`, 894 s.

`Cn1cc(C(=O)N2CCCCCCNC(=O)[C@@H]3CCC[C@@H]32)cn1` gave an RP-LC retention time of 622 s. As for `COc1ccc(NC(=O)N2CCN(c3nc4ccccc4n3C)CC2)c(OC)c1`, the figure is 609 s; as for `O=C(NCCCN1CCCC1=O)c1ccc2ccnc(N3CCN(c4ccc(F)cc4)CC3)c2c1`, 647 s; as for `COc1ccc(C(=O)N2CCC(n3c(-c4ccoc4)nc4cccnc43)C2)cc1OC` (stereo not given), 670 s. `COc1cc(C(=O)OC(C)CN2CCOCC2)cc(OC)c1OC` (stereo not given): the RP-LC retention time was found to be 662 s. `O=C(NCc1csc(-c2ccccc2)n1)C1CCN(S(=O)(=O)c2ccccc2F)CC1`: the RP-LC retention time amounted to 914 s.

For `Cc1ccc(-c2noc(CN3C(=O)C(C)Oc4ccccc43)n2)cc1C` (stereo not given), the RP-LC retention time amounted to 1180 s. The figure for `CCOCCCNC(=O)C1CCN(c2cnn(Cc3ccccc3)c(=O)c2)CC1` is 679 s. As for `CCOC(=O)Cn1c(-c2nnc(C)o2)cc2ccccc21`, the figure is 827 s; as for `Cc1ccc(C)c(NC(=O)Cc2nnc(-c3cnccn3)o2)c1`, 736 s. The molecule `Cc1c(-c2ccc(-c3ccccc3F)cc2)nc2ccc(F)cc2c1C(=O)O` registered an RP-LC retention time of 967 s. The figure for `CCN1CCN(CCNC(=O)C2CCCN(c3ncc(-c4ccc(F)cc4)cn3)C2)CC1` (stereo not given) is 632 s. `Cc1cccc(Nc2c(-c3ccc(Cl)cc3)nc3cnccn23)c1C` had an RP-LC retention time of 1110 s.

In the case of `CCCCCC(=O)Nc1cc(-c2nc3ccccc3[nH]2)ccc1C`, the RP-LC retention time was 712 s. The figure for `Cc1cc(NC(=O)Cn2c(=O)cc(-c3nc(C(C)C)no3)c3ccccc32)ccc1F` is 959 s; for `O=C(Nc1ccc(F)cc1)C1CCCN(C(=O)c2ccc(F)c(F)c2)C1` (stereo not given) it is 860 s; for `COC(=O)c1ccc(C(=O)OC)c(NS(=O)(=O)CCOc2ccccc2)c1` it is 968 s. Molecule `COC(=O)c1cnc2nc(C)ccc2c1Nc1cccc(Cl)c1F` yielded an RP-LC retention time of 704 s. As for `CC(=O)N1CC[C@]2(CO)CN(C(=O)c3ccsc3)C[C@@H]2C1`, the RP-LC retention time was 565 s. Molecule `CCOc1ccc(N2C(=O)CC(c3ccc(OC)cc3)CC2=O)cc1` registered an RP-LC retention time of 942 s. In the case of `CCN(Cc1ccccc1)C(=O)CN1C(=O)N(c2cc(C)cc(C)c2)C2CS(=O)(=O)CC21` (stereo not given), the RP-LC retention time was 893 s. As for `O=C(CC1=CCCCC1)N1CC(F)(F)C[C@H]1c1nc(C2CC2)no1`, the figure is 1000 s; as for `COc1cccc(CNC(=O)CN2C(=O)NC(c3ccc(Cl)cc3)C3=C2COC3=O)c1` (stereo not given), 764 s. `CCCS(=O)(=O)N1CC(=O)N(c2ccccc2F)C(C)(C(=O)NC2CCCCCCC2)C1` (stereo not given): the RP-LC retention time was 997 s. For `CN1C(=O)C2CCCCN2c2ccc(C(=O)NCCc3c[nH]c4ccccc34)cc21` (stereo not given), the RP-LC retention time amounted to 871 s. `COCC(=O)N1N=C(c2cccc(NS(C)(=O)=O)c2)CC1c1ccccc1F` (stereo not given) gave an RP-LC retention time of 718 s. With `Cc1nn2c(S(=O)(=O)NC3CCCCCC3)c(C)nc2s1`, the RP-LC retention time was determined as 844 s.

Turning to `CCc1nc(OCC(=O)Nc2ccc(OC)cc2OC)c2ccccc2n1`, the RP-LC retention time was found to be 788 s. `COc1ccc(NC(=O)C2c3cc(OC)c(OC)cc3C(=O)N(C)C2c2cccnc2)cc1Cl` (stereo not given): the RP-LC retention time was determined as 660 s. The molecule `Cc1nc(-c2ccncc2)nc2c1CCC(=O)N2CCc1ccccn1` displayed an RP-LC retention time of 541 s. As for `Cc1cc(-c2ccc(S(=O)(=O)N3CCC(C(=O)NCc4ccccc4C)CC3)o2)n[nH]1`, the figure is 816 s; as for `Cc1cc(C(=O)Nc2ccc(S(C)(=O)=O)cc2)no1`, 632 s. For the molecule `COc1ccc(NC(=O)Nc2nccn(-c3ccc(Cl)cc3)c2=O)cc1OC`, the RP-LC retention time came to 854 s. As for `c1ccc(C2(c3nc(-c4ccc(-n5cccn5)nc4)no3)CC2)cc1`, the figure is 1240 s; as for `Cc1ccc(N2CCC(NC(=O)NC(C)(C)C)C2=O)cc1` (stereo not given), 761 s. `Cc1cc(S(=O)(=O)N2CCC(OCc3noc(C4CCCO4)n3)CC2)ccc1Cl` (stereo not given) had an RP-LC retention time of 1040 s. Molecule `CCCCN(C)CCNC(=O)c1ccc(N2CCCC2=O)cc1` registered an RP-LC retention time of 581 s. With `Cc1cc(NC(=O)NC2CCN(c3ccccc3)C2=O)ccc1Br` (stereo not given), the RP-LC retention time was 919 s.
